pIC50: −log10 of the molar value.

The test system of assay [1] is Epidermal growth factor receptor (Homo sapiens), P00533 [UNDEFINED MUTATION]. As to the kind of experiment: Inhibition of EGFR L747-E749del/A750P mutant (unknown origin) assessed as remaining activity at 1 uM by Kinome scan method relative to control.
In assay [2] the target is T1, Myosin light chain kinase (Homo sapiens) (UniProt Q32MK0).
T1 sequence (whole entry): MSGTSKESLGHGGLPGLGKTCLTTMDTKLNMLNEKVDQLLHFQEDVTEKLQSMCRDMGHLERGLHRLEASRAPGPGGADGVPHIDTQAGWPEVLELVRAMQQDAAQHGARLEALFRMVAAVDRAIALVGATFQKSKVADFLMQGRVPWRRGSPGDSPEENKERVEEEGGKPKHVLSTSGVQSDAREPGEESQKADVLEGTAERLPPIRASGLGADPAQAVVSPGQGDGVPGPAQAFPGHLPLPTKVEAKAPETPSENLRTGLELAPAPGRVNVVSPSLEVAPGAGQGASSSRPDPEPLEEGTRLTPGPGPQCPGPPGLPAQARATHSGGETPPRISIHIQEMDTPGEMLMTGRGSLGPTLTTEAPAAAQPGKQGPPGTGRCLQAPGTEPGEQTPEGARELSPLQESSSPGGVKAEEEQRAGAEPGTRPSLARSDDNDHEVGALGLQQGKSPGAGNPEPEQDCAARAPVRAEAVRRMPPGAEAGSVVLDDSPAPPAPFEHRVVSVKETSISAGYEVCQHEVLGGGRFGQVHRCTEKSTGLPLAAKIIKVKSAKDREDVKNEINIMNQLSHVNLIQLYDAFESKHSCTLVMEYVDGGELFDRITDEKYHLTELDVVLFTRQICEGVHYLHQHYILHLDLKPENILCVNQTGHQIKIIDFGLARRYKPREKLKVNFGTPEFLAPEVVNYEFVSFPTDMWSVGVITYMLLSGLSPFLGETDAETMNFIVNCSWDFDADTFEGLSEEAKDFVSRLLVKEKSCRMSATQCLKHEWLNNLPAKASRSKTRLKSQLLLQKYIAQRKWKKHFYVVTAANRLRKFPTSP
As to the kind of experiment: Inhibition of human MYLK3 assessed as residual activity at 1 uM using RB-S6P as substrate in presence of 33P-ATP by ProQinase assay relative to control.

Assay [3] has as its system Proto-oncogene tyrosine-protein kinase receptor Ret (Homo sapiens), P07949 [V804L]. As to the kind of experiment: Inhibition of RET V804L (unknown origin) assessed as remaining activity at 1 uM by Kinome scan method relative to control.
Assay [4] deals with Epidermal growth factor receptor (Homo sapiens), P00533 [UNDEFINED MUTATION]. As to the kind of experiment: Inhibition of human EGFR d747-749/A750P mutant assessed as residual activity at 1 uM using PolyEY as substrate in presence of 33P-ATP by ProQinase assay relative to control.
For assay [5], the target named is T2, Ephrin type-A receptor 3 (Homo sapiens) (UniProt P29320).
T2 sequence (whole entry): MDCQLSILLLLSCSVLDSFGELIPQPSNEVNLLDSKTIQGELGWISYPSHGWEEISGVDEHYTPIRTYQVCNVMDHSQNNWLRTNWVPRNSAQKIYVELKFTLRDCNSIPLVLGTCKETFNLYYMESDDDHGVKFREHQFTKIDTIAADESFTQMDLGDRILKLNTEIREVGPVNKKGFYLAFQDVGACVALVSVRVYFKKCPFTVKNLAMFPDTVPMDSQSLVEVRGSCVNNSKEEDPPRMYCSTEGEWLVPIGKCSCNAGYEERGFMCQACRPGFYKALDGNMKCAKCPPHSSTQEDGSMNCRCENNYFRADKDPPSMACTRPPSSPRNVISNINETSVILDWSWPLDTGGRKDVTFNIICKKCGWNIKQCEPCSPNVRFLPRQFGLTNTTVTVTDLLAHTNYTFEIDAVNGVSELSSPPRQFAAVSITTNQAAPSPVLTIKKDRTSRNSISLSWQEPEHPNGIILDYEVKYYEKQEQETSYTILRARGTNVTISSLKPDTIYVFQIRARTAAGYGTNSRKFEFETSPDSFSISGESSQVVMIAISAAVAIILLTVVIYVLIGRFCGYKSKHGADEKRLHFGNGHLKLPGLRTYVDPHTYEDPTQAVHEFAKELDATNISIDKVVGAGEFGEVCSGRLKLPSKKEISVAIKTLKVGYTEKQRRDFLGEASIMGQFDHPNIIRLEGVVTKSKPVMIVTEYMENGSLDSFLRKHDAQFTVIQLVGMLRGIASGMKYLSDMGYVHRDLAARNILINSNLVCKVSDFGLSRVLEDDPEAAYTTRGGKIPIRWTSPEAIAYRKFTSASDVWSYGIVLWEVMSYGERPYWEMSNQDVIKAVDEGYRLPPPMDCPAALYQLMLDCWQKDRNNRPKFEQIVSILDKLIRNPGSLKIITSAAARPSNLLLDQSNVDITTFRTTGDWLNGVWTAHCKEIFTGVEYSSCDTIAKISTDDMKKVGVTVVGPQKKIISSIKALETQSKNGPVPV
In words: Inhibition of human EPHA3 assessed as residual activity at 1 uM using polyEY as substrate in presence of 33P-ATP by ProQinase assay relative to control.

Assay [6] addresses Rhodopsin kinase GRK7 (Homo sapiens) (UniProt Q8WTQ7). In words: Inhibition of GRK7 (unknown origin) assessed as remaining activity at 1 uM by Kinome scan method relative to control.
The subject of assay [7] is RAF proto-oncogene serine/threonine-protein kinase (Homo sapiens), P04049 [Y340D,Y341D]. As to the kind of experiment: Inhibition of human RAF1 Y340D/Y341D double mutant assessed as residual activity at 1 uM using MEK1-K97M as substrate in presence of 33P-ATP by ProQinase assay relative to control.
The target in assay [8] is Protein kinase C delta type (Homo sapiens) (UniProt Q05655). In words: Inhibition of PRKCD (unknown origin) assessed as remaining activity at 1 uM by Kinome scan method relative to control.
The nature of assay [9]: Anti-inflammatory activity against human derived medium respond PBMC cells assessed as inhibition in stimulated IL-10 cytokine release incubated for 2 hrs in the presence of LPS/SEB/aCD28 by Luminex based sandwich immunoassay. Type of assay: functional, cell-based.
For assay [10], the target named is G protein-coupled receptor kinase 5 (Homo sapiens) (UniProt P34947). In words: Inhibition of human GRK5 assessed as residual activity at 1 uM using casein as substrate in presence of 33P-ATP by ProQinase assay relative to control.
Assay [11] addresses NUAK family SNF1-like kinase 1 (Homo sapiens) (UniProt O60285). In words: Inhibition of ARK5 (unknown origin) assessed as remaining activity at 1 uM by Kinome scan method relative to control.
Assay [12] can be described thus: Anti-inflammatory activity against human derived high respond PBMC cells assessed as inhibition in stimulated IP-10 chemokine release incubated for 2 hrs in the presence of LPS/SEB/aCD28 by Luminex based sandwich immunoassay. The class given is functional, cell-based.
Assay [13] in a line: Anti-inflammatory activity against human derived high respond PBMC cells assessed as inhibition in stimulated IL-13 cytokine release incubated for 2 hrs in the presence of LPS/SEB/aCD28 by Luminex based sandwich immunoassay. Type of assay: functional, cell-based.

Chain of Epidermal growth factor receptor (Homo sapiens), P00533 [UNDEFINED MUTATION] (P00533 whole entry, looked up, stated change not applied): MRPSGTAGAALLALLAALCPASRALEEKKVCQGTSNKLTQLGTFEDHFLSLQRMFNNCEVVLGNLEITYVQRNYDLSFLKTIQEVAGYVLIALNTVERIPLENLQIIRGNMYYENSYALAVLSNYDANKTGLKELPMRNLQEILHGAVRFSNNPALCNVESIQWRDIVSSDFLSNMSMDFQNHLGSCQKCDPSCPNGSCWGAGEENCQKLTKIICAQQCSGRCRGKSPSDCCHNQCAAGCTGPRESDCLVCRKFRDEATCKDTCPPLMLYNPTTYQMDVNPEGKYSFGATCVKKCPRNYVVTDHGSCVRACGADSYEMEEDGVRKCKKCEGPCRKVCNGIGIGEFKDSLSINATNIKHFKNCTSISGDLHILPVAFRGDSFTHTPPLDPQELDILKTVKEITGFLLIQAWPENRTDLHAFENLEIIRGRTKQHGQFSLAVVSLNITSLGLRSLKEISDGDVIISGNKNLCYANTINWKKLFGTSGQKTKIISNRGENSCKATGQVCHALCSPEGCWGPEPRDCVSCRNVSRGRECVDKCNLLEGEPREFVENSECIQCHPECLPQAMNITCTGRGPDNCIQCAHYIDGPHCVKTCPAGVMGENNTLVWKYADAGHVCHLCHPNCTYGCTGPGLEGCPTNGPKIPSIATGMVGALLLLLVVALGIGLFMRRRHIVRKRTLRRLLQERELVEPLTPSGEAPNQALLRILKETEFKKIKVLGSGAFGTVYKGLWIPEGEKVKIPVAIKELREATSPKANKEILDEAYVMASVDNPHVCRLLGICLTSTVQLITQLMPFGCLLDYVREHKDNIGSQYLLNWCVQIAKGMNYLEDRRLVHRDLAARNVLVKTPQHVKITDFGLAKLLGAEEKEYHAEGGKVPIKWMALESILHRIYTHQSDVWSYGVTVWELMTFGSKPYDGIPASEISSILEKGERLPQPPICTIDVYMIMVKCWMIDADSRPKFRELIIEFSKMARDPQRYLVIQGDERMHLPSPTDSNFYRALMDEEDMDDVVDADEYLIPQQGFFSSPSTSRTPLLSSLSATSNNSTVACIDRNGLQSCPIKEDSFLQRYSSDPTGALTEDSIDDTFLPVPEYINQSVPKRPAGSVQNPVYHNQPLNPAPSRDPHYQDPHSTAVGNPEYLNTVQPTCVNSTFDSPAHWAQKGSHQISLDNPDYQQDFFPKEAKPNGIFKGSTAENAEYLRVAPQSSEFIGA
Chain of G protein-coupled receptor kinase 5 (Homo sapiens) (P34947 whole entry, looked up): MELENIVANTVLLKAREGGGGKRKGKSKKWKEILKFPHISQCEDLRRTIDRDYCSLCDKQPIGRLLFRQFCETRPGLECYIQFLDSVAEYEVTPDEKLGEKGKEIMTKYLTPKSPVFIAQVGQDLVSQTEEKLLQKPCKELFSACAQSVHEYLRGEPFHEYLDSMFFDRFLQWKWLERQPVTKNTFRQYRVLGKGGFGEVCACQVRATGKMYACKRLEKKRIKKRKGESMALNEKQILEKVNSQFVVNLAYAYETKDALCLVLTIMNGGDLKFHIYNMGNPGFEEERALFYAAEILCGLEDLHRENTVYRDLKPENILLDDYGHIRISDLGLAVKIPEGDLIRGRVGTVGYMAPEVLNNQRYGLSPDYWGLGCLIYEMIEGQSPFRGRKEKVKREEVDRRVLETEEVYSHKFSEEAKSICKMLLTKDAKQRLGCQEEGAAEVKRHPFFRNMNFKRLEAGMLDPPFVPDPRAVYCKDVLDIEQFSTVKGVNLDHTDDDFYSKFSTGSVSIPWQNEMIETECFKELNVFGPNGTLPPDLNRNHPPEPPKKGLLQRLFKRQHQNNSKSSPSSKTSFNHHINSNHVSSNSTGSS
Chain of Rhodopsin kinase GRK7 (Homo sapiens) (Q8WTQ7 whole entry): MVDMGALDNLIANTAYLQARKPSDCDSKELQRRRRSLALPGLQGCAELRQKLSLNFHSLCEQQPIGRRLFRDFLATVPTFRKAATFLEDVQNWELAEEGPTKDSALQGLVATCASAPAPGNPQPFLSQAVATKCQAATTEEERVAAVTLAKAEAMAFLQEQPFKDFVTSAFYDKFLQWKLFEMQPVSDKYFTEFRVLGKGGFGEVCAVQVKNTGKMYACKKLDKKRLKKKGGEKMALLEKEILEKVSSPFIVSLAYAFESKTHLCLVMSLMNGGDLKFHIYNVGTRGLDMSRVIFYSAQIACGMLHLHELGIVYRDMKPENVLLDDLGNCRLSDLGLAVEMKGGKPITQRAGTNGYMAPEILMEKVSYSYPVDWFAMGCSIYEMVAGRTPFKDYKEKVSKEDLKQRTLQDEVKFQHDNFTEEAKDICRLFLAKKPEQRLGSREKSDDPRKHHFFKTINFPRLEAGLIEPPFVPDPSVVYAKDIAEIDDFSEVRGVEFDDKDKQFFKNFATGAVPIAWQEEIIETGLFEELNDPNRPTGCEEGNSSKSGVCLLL
Chain of Proto-oncogene tyrosine-protein kinase receptor Ret (Homo sapiens), P07949 [V804L] (P07949 whole entry V804L): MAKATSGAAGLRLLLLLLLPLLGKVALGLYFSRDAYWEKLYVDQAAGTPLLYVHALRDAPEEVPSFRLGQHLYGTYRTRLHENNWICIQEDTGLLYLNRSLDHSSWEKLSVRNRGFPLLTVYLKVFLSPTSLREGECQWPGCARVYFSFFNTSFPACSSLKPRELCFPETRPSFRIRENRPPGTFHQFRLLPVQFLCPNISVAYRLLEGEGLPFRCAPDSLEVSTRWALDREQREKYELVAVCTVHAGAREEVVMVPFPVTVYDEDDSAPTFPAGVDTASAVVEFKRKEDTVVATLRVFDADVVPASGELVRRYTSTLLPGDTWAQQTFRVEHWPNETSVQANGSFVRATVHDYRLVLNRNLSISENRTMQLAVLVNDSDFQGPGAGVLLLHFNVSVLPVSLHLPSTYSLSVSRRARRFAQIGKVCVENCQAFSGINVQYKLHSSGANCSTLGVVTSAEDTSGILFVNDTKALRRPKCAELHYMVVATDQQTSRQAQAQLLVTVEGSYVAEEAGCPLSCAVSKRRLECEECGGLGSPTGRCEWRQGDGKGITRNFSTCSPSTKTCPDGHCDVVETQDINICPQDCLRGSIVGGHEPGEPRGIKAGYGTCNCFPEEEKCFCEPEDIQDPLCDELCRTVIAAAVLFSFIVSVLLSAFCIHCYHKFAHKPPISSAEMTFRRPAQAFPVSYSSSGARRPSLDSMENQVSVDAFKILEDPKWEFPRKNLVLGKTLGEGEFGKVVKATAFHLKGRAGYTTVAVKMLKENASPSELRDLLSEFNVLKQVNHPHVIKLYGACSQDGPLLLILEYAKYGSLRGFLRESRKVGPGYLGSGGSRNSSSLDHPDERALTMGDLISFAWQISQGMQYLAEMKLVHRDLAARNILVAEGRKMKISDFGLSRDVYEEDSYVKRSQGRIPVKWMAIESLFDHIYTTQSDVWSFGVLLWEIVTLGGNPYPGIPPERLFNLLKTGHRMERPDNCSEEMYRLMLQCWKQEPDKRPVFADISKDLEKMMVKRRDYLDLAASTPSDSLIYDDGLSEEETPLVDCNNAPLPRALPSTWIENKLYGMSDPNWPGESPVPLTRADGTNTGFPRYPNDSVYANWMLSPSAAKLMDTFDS
Chain of Protein kinase C delta type (Homo sapiens) (Q05655 whole entry, looked up): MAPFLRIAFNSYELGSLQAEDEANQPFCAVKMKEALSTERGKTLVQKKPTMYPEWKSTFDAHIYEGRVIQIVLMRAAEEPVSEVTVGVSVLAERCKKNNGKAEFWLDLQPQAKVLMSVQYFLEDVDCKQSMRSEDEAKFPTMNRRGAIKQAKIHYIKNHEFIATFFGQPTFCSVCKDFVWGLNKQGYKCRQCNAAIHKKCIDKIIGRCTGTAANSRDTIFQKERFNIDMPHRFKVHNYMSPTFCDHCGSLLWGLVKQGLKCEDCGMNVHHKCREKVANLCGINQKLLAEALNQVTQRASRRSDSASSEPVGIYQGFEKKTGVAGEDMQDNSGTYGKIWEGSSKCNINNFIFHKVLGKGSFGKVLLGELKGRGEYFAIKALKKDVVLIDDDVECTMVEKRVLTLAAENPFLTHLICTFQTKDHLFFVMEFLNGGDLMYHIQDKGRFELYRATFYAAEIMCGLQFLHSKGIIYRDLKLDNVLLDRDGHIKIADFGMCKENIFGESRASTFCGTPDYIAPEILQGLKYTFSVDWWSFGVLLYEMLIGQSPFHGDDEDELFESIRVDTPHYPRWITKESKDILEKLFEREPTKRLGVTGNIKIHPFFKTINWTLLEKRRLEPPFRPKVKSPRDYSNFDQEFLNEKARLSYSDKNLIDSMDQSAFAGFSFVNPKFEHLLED
Chain of NUAK family SNF1-like kinase 1 (Homo sapiens) (O60285 whole entry): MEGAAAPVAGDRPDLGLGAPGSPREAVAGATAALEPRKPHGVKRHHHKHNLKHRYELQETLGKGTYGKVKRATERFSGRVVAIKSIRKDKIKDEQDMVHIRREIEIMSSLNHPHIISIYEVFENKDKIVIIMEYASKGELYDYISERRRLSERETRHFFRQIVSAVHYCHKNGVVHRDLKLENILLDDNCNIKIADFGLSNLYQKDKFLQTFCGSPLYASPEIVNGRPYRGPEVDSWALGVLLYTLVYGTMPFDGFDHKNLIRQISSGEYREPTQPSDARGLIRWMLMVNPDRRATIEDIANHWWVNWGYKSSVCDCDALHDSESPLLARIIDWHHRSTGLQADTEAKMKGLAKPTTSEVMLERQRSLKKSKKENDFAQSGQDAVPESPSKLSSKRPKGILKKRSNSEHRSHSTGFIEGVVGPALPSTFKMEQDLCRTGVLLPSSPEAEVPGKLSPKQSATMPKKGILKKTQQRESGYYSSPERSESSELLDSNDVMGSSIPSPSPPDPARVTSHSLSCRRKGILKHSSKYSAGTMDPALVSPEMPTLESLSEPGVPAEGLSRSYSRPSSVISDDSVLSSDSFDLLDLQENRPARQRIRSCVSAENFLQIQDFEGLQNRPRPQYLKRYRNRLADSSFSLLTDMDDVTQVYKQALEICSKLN

On to `O=C1c2ccc(Nc3ccc(F)cc3F)cc2CCc2ccc(OC[C@H](O)CO)cc21` [Skepinone-L], for which the Activity in assay [1] turned out to be 82%; in [2], 85%; in assay [3], 100%; in assay [4], 96%; in [5] it was 107%; in assay [6], 100%. The Activity in assay [7] was 91%; in assay [8], 94%; in assay [10], 121%; in assay [11], 100%. Besides, the negative-log IC50 (pIC50) is 7.22 in assay [9] and 5.71 in assay [13]. Moreover, the IC50 entry in assay [12] is “Not Active”.

The values above are taken from ChEMBL document CHEMBL5696441 (Nat Chem Biol, 2011).
